Source: ChEMBL document CHEMBL1201862, “PubChem BioAssay data set” (2004)
Active and inactive are the calls of the source.

test system: not listed separately; test: NIH-3T3 fibroblast cytotoxicity, dose response, cytotoxicity control, cell-based, fluorescence, Alamar Blue, secondary assay (AID 2327); assay type: functional; conditions: not given;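 also: NIH-3T3 mouse fibroblasts cultured with fluconazole at 8 µg/mL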

Row | SMILES | EC50
1 | COc1ccc(C2=CSC3=NNC4(CCCCC4)NN23)cc1 | 38.8 µM (active)

test system: not listed separately; test: HEp-2 cell cytotoxicity, dose response, cytotoxicity control for RSV inhibitor project, HTS (AID 2410); assay type: functional; conditions: human respiratory syncytial virus

Row | SMILES | CC50
2 | O=C(N/N=C/c1cn(-c2ccccc2)nc1-c1cccs1)c1ccccc1F | 25.6 µM (active)

molecular target: FAD-linked sulfhydryl oxidase ALR (Homo sapiens, UniProt P55789); test: inhibitors of human ALR sulfhydryl oxidase, dose response, biochemical, H2O2 detection, luminescence, cherry-pick (AID 493248); conditions: not given
Sequence (P55789 whole entry): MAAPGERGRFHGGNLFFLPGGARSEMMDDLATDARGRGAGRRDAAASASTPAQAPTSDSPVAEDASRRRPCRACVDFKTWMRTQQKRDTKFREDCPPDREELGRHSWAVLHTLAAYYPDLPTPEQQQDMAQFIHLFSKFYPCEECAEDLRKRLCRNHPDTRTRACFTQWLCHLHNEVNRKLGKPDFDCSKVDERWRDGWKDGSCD

Row | SMILES | AC50
3 | COc1ccc(C2=CSC3=NNC4(CCCCC4)NN23)cc1 | 1.42 µM (active)
4 | COc1cc(OC)cc(C(=O)N2CCN=C2SCc2cccnc2)c1 | 0.154 µM (active)
5 | Cc1nc(SCc2ccc(C(=O)O)cc2)nc2c1CCCC2 | 3.29 µM (active)
6 | COc1ccc(NC(=O)CC2C(=O)Nc3ccccc3N2CC(=O)N2CCCC2)cc1 (stereo not given) | 6.65 µM (active)
7 | CC(=O)Oc1cc2oc(=O)cc(C)c2cc1Cl | 2.62 µM (active)
8 | CC1(c2ccccc2)NC(=O)N(CC(=O)Nc2ccc(S(=O)(=O)Nc3ncccn3)cc2)C1=O (stereo not given) | 0.675 µM (active)
9 | CC(=O)NC(C)C(c1cccs1)N1CCN(c2ccccc2)CC1 (stereo not given) | 0.273 µM (active)
10 | COc1ccc(C2NC(=O)CS2)cc1OC (stereo not given) | 0.093 µM (active)
11 | COc1cc(CNc2ccc(C)c(C)c2)cc(OC)c1OC | 9.13 µM (active)
12 | CCN1C(=O)c2cccc3c(S(=O)(=O)Nc4ccc(O)c(C(=O)O)c4)ccc1c23 | 1.55 µM (active)
13 | O=C1CCC(C(=O)Nc2ccccc2N2CCCC2)=NN1 | 3.7 µM (active)
14 | COc1cccc(/C=N/NC(=O)NC2CCCCC2)c1O | 3.71 µM (active)
15 | COc1cc(/C=N/NC(=O)c2cc(-c3ccc4c(c3)OCO4)[nH]n2)ccc1O | 0.408 µM (active)
16 | O=C(CN1CCCc2ccccc21)N/N=C/c1ccc(O)cc1O | 2.35 µM (active)
17 | C/C(=N\NC(=O)c1ccc(N/N=C(\C)c2ccncc2)cc1)c1ccncc1 | 0.107 µM (active)

molecular target: Cytochrome P450 2C19 (Homo sapiens, UniProt P33261); test: Cytochrome panel assay with activity outcomes. Panel member name: p450-cyp2c19 Compounds with AC50 equal or less than 10 uM are considered active; assay type: functional; conditions: read-out: AC50
Sequence (P33261 whole entry): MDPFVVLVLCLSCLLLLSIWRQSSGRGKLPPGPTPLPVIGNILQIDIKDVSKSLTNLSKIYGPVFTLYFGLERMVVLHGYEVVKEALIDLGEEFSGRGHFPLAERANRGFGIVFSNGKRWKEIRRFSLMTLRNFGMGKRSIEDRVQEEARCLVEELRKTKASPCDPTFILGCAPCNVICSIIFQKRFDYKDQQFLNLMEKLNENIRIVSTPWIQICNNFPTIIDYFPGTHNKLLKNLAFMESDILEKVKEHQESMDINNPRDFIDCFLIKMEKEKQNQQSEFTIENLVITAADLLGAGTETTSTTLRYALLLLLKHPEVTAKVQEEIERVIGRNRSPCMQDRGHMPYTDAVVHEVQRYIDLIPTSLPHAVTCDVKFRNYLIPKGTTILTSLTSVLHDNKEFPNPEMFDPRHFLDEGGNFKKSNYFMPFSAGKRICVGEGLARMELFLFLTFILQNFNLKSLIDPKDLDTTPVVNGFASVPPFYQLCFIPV

Row | SMILES | AC50
18 | CC(=O)NC(C)C(c1cccs1)N1CCN(c2ccccc2)CC1 (stereo not given) | 3.98 µM (inconclusive)

test system: INS1; test: beta cell apoptosis inhibitors, cytokine rescue, dose response, luminescence, retest (AID 449756); assay type: functional, cell-based; conditions: Rattus norvegicus;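 also: cell death triggered by IL-1 beta plus TNF-alpha plus IFN-gamma mixture; protective hits raise ATP signal compared with cytokine alone wells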

Row | SMILES | AC50
19 | CCN(CC)c1ccc(/C=N/Nc2nc(C)cc(C)n2)c(O)c1 | 2.84 µM (active)

test system: H9c2; test: cells; assay type: functional, cell-based; conditions: Rattus norvegicus, H9c2, Myocardium;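 also: confirmatory concentration-response retest of ultra-high-throughput screening hits for modulation of myocardial damage; cell death induced by hydrogen peroxide oxidative stress; compound pretreatment for 60 min then peroxide exposure for 2 h; potency is for protecting the cells against peroxide damage rather than for killing them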

Row | SMILES | IC50
20 | COc1ccc(CCNC(=O)c2cc3c(C)nccc3nc2O)cc1OC | > 79 µM (inactive)
21 | COc1cc(C)cc2oc(=O)c(CC(=O)N3CCN(C(=O)C4COc5ccccc5O4)CC3)c(C)c12 (stereo not given) | > 79 µM (inactive)
22 | Cc1ccc(-c2nnc(O)c3ccccc23)cc1S(=O)(=O)NCCN1CCOCC1 | 14.2 µM (active)
23 | COc1cccc(C(=O)Nc2nnc(-c3ccc(Cl)cc3)o2)c1 | > 79 µM (inactive)
24 | CCOC(=O)COc1cc(OCC(=O)OCC)c2c3c(c(=O)oc2c1)CCCC3 | 10.5 µM (active)
25 | O=C1COc2ccc(-c3nnc(O)c4ccccc34)cc2N1 | 5.26 µM (active)
26 | CN(CC(=O)Nc1ccccc1Br)C(=O)CCc1nc(O)c2ccccc2n1 | 12.7 µM (active)
27 | Cc1cc(NC(=O)COC(=O)COc2ccc3c4c(c(=O)oc3c2)CCC4)no1 | 13.1 µM (active)
28 | COc1ccc(-c2cc(C(=O)N3CCN(c4ccccc4)CC3)c3ccccc3n2)cc1OC | 63.6 µM (inactive)
29 | Cn1c(C(=O)Nc2ccc3c(c2)OCCO3)cc2c(=O)n(C)c3ccccc3c21 | > 79 µM (inactive)
30 | COc1cc2nc(O)n3nc(-c4ccccc4)nc3c2cc1OC | > 79 µM (inactive)
31 | COc1cc2c(C#CCCCO)c(-c3ccsc3)oc(=O)c2cc1OC | > 79 µM (inactive)
32 | O=C(CCc1nc(O)c2ccccc2n1)NNC(=O)c1ccc(Cl)cc1 | > 79 µM (inactive)
33 | COc1cccc(-c2cnc3c(NC=O)cc(-c4cccc(NC(C)=O)c4)cn23)c1 | > 79 µM (inactive)
34 | CCN(CC(=O)Nc1ccc(OC)cc1)C(=O)CCc1nc(O)c2ccccc2n1 | > 79 µM (inactive)
35 | O=C(N/N=C/c1cn(-c2ccccc2)nc1-c1cccs1)c1ccccc1F | > 79 µM (inactive)
36 | Cc1nc2c(c(=O)n1CCC1=CCCCC1)c1nc3ccccc3nc1n2/N=C/c1ccccc1 | > 79 µM (inactive)
37 | CCCCCCn1c(C)nc2c(c1=O)c1nc3ccccc3nc1n2/N=C/c1ccco1 | 23.3 µM (active)
38 | COc1ccc(OCC(=O)N/N=C/c2cccc3cccnc23)cc1 | > 79 µM (inactive)

test system: not listed separately; test: Shn3 3'UTR reporter inhibitors, dose response, cell-based, Clone20 osteoblasts, firefly luciferase, cherry-picked (AID 624132); assay type: functional; conditions: not given;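 also: firefly luciferase luminescence from reporter carrying the Shn3 3'UTR in osteoblasts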

Row | SMILES | AC50
39 | CC(=O)N1c2ccc(S(=O)(=O)N3CCC(C(=O)N4CCN(c5cc(Cl)ccc5C)CC4)CC3)cc2CC1C (stereo not given) | 3.1 µM (active)
40 | COc1cc2ncnc(N[C@H](C)c3ccccc3)c2cc1OC | 8.72 µM (active)
41 | COc1ccc([C@@]23Oc4cc(OC)cc(OC)c4[C@]2(O)[C@H](O)[C@H](C(=O)N(C)C)[C@H]3c2ccccc2)cc1 [ROCAGLAMIDE] | < 0.26 µM (active)

test system: not listed separately; test: control 3'UTR Renilla luciferase suppression, dose response, counter-screen for Shn3 inhibitor project, cell-based, Clone20-Shn3RL, cherry-picked (AID 624133); assay type: functional; conditions: not given

Row | SMILES | AC50
42 | CC(=O)N1c2ccc(S(=O)(=O)N3CCC(C(=O)N4CCN(c5cc(Cl)ccc5C)CC4)CC3)cc2CC1C (stereo not given) | 6.67 µM (active)
43 | COc1cc2ncnc(N[C@H](C)c3ccccc3)c2cc1OC | 22.7 µM (active)
44 | COc1ccc([C@@]23Oc4cc(OC)cc(OC)c4[C@]2(O)[C@H](O)[C@H](C(=O)N(C)C)[C@H]3c2ccccc2)cc1 [ROCAGLAMIDE] | 0.889 µM (active)

molecular target: T1, Rac GTPase-activating protein 1 (Homo sapiens, UniProt Q9H0H5); test: MgcRacGAP GTPase-activating activity inhibitors, confirmation, biochemical, ADP Hunter fluorescence, primary and confirmatory (AID 624330); assay type: functional; conditions: not given
T1 sequence (Q9H0H5 whole entry): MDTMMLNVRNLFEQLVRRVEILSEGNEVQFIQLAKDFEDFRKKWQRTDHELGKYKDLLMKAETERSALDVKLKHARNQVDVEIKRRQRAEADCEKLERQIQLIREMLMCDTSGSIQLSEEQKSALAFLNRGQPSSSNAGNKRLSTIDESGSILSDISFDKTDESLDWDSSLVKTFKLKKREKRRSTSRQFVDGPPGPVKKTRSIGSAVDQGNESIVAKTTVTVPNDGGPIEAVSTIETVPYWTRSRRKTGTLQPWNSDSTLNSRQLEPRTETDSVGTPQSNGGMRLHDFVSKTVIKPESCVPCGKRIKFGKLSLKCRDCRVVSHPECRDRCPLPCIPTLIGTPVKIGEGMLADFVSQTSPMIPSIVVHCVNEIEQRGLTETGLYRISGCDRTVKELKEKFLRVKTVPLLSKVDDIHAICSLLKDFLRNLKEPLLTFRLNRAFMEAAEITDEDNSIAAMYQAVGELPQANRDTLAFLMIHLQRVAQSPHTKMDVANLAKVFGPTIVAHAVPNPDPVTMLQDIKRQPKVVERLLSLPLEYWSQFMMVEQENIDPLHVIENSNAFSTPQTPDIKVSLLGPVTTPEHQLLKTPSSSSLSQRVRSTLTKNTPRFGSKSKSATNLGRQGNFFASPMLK

Row | SMILES | IC50
45 | O=C(COc1ccc2ccccc2c1)N1CCN(Cc2ccncc2)CC1 | 62.2 µM (active)
46 | CCCS(=O)(=O)N1CCN(C2Cc3ccccc3C2)CC1 | 180 µM (active)
47 | CCOc1cc(/C=C(\C#N)C(=O)NCc2cccnc2)ccc1O | 42.4 µM (active)
48 | COc1cc(-c2cc(C(=O)O)c3c(OC)c(OC)c(OC)cc3n2)ccc1O | 126 µM (active)
49 | CSc1ccc(CN2CCN(Cc3ccccc3Cl)CC2)cc1 | 95.1 µM (active)
50 | COc1ccccc1CNc1ncc(-c2ccccc2)n1C | 49.5 µM (active)
51 | CN(CC(=O)NCc1ccccc1)Cc1cccc(F)c1 | 67 µM (active)
52 | O=C(c1cccs1)N1CCN(Cc2ccncc2)CC1 | 88.5 µM (active)
53 | CN(C)CCNC(C(=O)Nc1cccc(C(F)(F)F)c1)c1ccccc1 (stereo not given) | 76.5 µM (active)
54 | CCN(CC)c1ccc(/C=N/Nc2nc(C)cc(C)n2)c(O)c1 | 62.8 µM (active)
55 | COc1cc(/C=N/Nc2cc(C)nc(NS(=O)(=O)c3ccccc3)n2)ccc1O | 37.8 µM (active)
56 | CCN(CC)c1ccc(NC(=O)COC(=O)CCc2cc(OC)c(OC)c(OC)c2)cc1 | 81.1 µM (active)
57 | Cc1ccc(NC(=O)CCC(=O)N/N=C/c2ccc(O)cc2)cc1 | 51.4 µM (active)
58 | Oc1ccc(/C=N/NC(=S)NCc2ccco2)cc1 | 35.3 µM (active)
59 | COc1cc(-c2ccc(N)c(OC)c2)ccc1N | 9 µM (active)

molecular target: Paired box protein Pax-8 (Homo sapiens, UniProt Q06710); test: inhibitors of PAX8-driven TPO luciferase reporter, dose response, RMG-I cells, cherry-pick (AID 687027); assay type: functional, cell-based; conditions: not given;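 also: luciferase reporter driven by Pax8 target thyroperoxidase promoter measured by SteadyGlo luminescence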
Sequence (Q06710 whole entry): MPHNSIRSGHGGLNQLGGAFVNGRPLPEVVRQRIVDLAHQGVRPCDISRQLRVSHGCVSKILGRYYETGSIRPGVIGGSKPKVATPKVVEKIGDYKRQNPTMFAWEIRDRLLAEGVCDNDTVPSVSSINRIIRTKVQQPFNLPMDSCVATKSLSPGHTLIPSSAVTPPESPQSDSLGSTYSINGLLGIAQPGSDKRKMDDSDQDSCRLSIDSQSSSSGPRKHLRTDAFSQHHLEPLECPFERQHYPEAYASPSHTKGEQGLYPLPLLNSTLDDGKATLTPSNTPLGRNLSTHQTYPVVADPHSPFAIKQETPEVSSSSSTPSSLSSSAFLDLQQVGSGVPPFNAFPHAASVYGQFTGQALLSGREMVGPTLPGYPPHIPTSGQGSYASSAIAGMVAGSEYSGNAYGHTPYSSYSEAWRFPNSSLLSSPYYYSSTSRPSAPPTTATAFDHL

Row | SMILES | AC50
60 | COc1ccc(C(=O)CCS(=O)(=O)c2ccc(C)cc2)cc1OC | 9.82 µM (active)
61 | Cc1ccc(S(=O)(=O)c2nc(S(=O)(=O)c3ccccc3)sc2N2CCN(C)CC2)cc1 | 7.56 µM (active)
62 | C[C@@H]1CN([C@@H](C)CO)C(=O)c2cc(NC(=O)Nc3ccc(C(F)(F)F)cc3)ccc2O[C@@H](C)CCCCO[C@H]1CN(C)Cc1ccc(Cl)c(Cl)c1 | 9.66 µM (active)
63 | C[C@@H]1CCCCO[C@@H](CN(C)Cc2ccc(C(F)(F)F)cc2)[C@H](C)CN([C@H](C)CO)C(=O)c2cc(NC(=O)Cc3ccccc3)ccc2O1 | 4.62 µM (active)

molecular target: Cytochrome P450 3A4 (Homo sapiens, UniProt P08684); test: not given; conditions: not given;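 also: CYP3A4 tested as one member of a cytochrome P450 panel screen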
Sequence (P08684 whole entry): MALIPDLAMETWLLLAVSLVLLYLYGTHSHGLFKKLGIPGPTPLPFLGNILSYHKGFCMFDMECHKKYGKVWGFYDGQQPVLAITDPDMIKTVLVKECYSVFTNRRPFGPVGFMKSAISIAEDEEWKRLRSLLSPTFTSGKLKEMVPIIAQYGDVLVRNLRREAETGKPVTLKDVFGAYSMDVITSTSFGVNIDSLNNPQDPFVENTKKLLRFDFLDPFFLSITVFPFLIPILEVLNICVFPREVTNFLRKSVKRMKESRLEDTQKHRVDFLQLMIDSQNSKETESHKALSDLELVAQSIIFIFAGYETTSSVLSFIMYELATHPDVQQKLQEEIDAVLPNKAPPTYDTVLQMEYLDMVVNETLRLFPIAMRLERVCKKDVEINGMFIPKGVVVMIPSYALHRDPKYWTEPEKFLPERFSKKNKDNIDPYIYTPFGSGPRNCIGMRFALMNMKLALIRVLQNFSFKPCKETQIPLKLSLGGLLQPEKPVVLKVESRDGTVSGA

Row | SMILES | AC50
64 | CC(=O)NC(C)C(c1cccs1)N1CCN(c2ccccc2)CC1 (stereo not given) | 39.8 µM (inconclusive)

molecular target: Cytochrome P450 2C9 (Homo sapiens, UniProt P11712); test: not given; conditions: not given
Sequence (P11712 whole entry): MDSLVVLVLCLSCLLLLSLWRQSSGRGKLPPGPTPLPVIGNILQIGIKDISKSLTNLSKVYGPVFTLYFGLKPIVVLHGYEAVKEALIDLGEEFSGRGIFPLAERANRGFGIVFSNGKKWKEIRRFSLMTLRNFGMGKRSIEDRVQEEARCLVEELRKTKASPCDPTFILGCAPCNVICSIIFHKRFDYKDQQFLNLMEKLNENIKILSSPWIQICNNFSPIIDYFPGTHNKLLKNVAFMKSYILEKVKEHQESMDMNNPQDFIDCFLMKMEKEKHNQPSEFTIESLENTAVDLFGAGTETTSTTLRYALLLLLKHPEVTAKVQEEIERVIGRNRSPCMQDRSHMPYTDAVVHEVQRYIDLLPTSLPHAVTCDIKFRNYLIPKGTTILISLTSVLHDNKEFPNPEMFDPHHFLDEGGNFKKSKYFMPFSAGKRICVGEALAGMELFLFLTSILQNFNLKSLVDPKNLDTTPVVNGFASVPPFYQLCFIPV

Row | SMILES | AC50
65 | CC(=O)NC(C)C(c1cccs1)N1CCN(c2ccccc2)CC1 (stereo not given) | 11.2 µM (inconclusive)
